These results are taken from publication PMC7970121, “Combination With Tomatidine Improves the Potency of Posaconazole Against Trypanosoma cruzi” (Frontiers in Cellular and Infection Microbiology, 2021).

“Also recorded” adds a separate entry of the source. Where a name gives a salt, the structure may show the parent alone. Read-outs that look alike come from different tables or passages of the source.

Data set [1] deals with Trypanosoma cruzi intracellular amastigotes (Tulahuen strain in rat L6 myoblasts). Briefly: Activity on T. cruzi intracellular amastigotes in L6 cells (LacZ/CPRG, 96 h). The class given is cell-based. The conditions noted are these: for SI (Selectivity Index): EC50 on mammalian L6 cells versus EC50 on intracellular amastigotes; for EC50 / EC90: Tulahuen strain in rat L6 myoblasts, 96 h, n = 3; for EC50: read-out: Amastigotes (mean ± SD) EC50; for EC90: read-out: Amastigotes (mean ± SD) EC90. The procedure: (§1) L6 cells derived from rat skeletal myoblast (ATCC CRL-1458) were used as host cells for T. cruzi using trypomastigotes of Tulahuen C2C4 strain (DTU VI) expressing the β-galactosidase gene (LacZ) ([Buckner et al., 1996]). The cultures were sustained in RPMI-1640 supplemented with 10% inactivated fetal bovine serum (FBS) and […] at 5% CO2 and 37°C. Epimastigote T. cruzi (STIB 980 strain, DTU TcI) were cultivated at 28°C in liver infusion tryptose (LIT) medium supplemented with hemin (2 μg/ml) and 10% FBS and were used in log phase of growth. Bloodstream trypomastigotes (Y strain, DTU II) were isolated from Swiss Webster mice infected at the peak of parasitemia (≥ 2.5 × 10^6/ml), as reported ([Meirelles et al., 1986]).
Rat skeletal myoblasts (L6 cell lines) were seeded in 96-well plates (10^4 cells/well) in 100 μl RPMI 1640 medium supplemented with 10% fetal bovine serum (FBS) and 2 mM L-glutamine. The medium was removed after 24 h incubation and replaced by 100 μl of fresh medium containing 10^5 LacZ trypomastigotes (Tulahuen DTU VI). After 48 h, the medium was again removed and replaced with or without a serial of compound concentrations (eleven three-fold dilution steps). After 96 h of compound exposure, CPRG/Nonidet (50 μl) substrate was added and the reading performed after 2–6 h at 540 nm in Versamax microplate reader (Molecular Devices Cooperation, USA). Growth was expressed as percentage of the values of solvent-treated controls. The graphics program Softmax Pro (Molecular Devices) was used to construct dose–response curves and calculate EC50 values. Bz was used as reference drug.

Data set [2] can be described thus: Cytotoxicity against L6 cells (resazurin, 72 h). The format is cell-based, rat. The procedure: Rat skeletal myoblasts (L6 cell lines) were seeded in 96-well plates (4 × 10^4 cells/well) in 100 μl RPMI 1640 medium supplemented with 10% fetal bovine serum (FBS) and 2 mM L-glutamine. After 24 h incubation the medium was replaced with 100 μl of fresh medium with or without a serial dilution of compound concentrations (eleven three-fold dilution steps). After 72 h of compound exposure, fluorescent dye resazurin (10 μl, 12.5 mg resazurin dissolved in 100 ml water) was added for 2 h and the readings performed at Spectramax Gemini XS microplate fluorometer (Molecular Devices Cooperation, USA), with excitation wavelength of 536 nm and an emission wavelength of 588 nm. Growth was expressed as percentage of the values of solvent-treated controls. The graphics program Softmax Pro (Molecular Devices) was used to construct dose–response curves and calculate EC50 values. Podophyllotoxin (a microtubule destabilizing agent) was used as positive control.

Data set [3] concerns T. cruzi (Y strain). Briefly: Mouse model of acute T. cruzi infection: parasitemia and mortality. The class given is in vivo, Trypanosoma cruzi. The procedure: Male Swiss Webster mice (18–23 g) were obtained from the Instituto de Ciência e Tecnologia em Biomodelos (ICTB/Fiocruz) (Rio de Janeiro, Rio de Janeiro, Brazil). Five mice were housed per cage, kept in a conventional room at 20–24°C under 12 h/12 h light/dark cycle. Sterilized water and chow were provided ad libitum. The animals were acclimated for 7 days before being used in the different assays. All procedures were done following Biosafety Guidelines in compliance with the Fiocruz and all animal procedure approved by the Committee of Ethics for the Use of Animals (CEUA L-38/17).
Male mice (n = 5 per group) were infected i.p. with 10^4 bloodstream trypomastigotes of T. cruzi (Y strain). Only mice with positive parasitemia at day 5 post infection (dpi) were included in the studies. […] Uninfected and T. cruzi-infected mice treated only with vehicle (aqueous solution of 0.5% carboxymethylcellulose) were age-matched and housed under identical conditions and used as controls ([Simões-Silva et al., 2017]). All compound formulations were freshly prepared before every administration.
All animals were individually checked for circulating blood parasitemia by counting the number of parasites in 5 µl of blood taken from the tail vein and investigated under the microscope ([Brener, 1962]). Parasitemia was checked till 30 dpi, while mortality was checked daily up to 30 days after the administration of the last dose. Mortality was given as percentage of cumulative mortality (CM) ([Simões-Silva et al., 2017]).

Data set [4] relates to Trypanosoma cruzi epimastigotes (STIB 980 strain). Briefly: Activity on T. cruzi epimastigotes (resazurin, 72 h). The class given is cell-based. The conditions noted are these: STIB980, STIB 980 strain, 72 h; for EC50: n = 3, read-out: Epimastigotes (mean ± SD) EC50; for EC90: n = 3, read-out: Epimastigotes (mean ± SD) EC90. Here is the method:
as §1
Epimastigotes (10^7 parasites/ml) were incubated for 72 h at 28°C with serially diluted compound concentrations (eleven 1:3 dilutions) in supplemented LIT medium. Parasite viability and motility were evaluated by direct observation by light microscopy and fluorometric assays performed with resazurin (12.5 mg resazurin dissolved in 100 ml distilled water). After 2–4 h of incubation with resazurin solution, plates were read in Spectramax Gemini XS microplate fluorometer (Molecular Devices Cooperation, USA) using wavelengths of 536 nm (excitation) and 588 nm (emission) ([Räz et al., 1997]). Growth was expressed as percentage of the values of solvent-treated controls. The graphics program Softmax Pro (Molecular Devices) was used to construct dose–response curves and calculate EC50 (half maximal inhibitory concentration) values. Bz was used as reference drug.
In general terms: The colour change of resazurin is a common sign of viable cells or microbes.

A short description of data set [5]: Toxicity in female mice after p.o. administration. The format is in vivo. Particulars: up to 200 mpk (data not shown).
Data set [6] has as its system T. cruzi epimastigote cultures. The arrangement: method as in Chataing et al., 1998. The conditions noted are these: after four days of incubation; ref Chataing et al., 1998; read-out: Concentration inhibiting growth of epimastigote cultures to 50%; cited from earlier work.
Setting [7] is: Trypanosoma cruzi, TULAHUEN, L6, 96 h.
Setting [8] is: TH alone, all tested doses (up to 5 mpk) p.o., 10 days, mice.

As a reminder, the EC90 is the concentration at which the effect reaches the 90% level. For the compound `CC[C@@H]([C@H](C)O)n1ncn(-c2ccc(N3CCN(c4ccc(OC[C@@H]5CO[C@@](Cn6cncn6)(c6ccc(F)cc6F)C5)cc4)CC3)cc2)c1=O` [Posaconazole], the “SI (Selectivity Index)” value in data set [1] was over 700. Besides, the EC50 in data set [1] (setting [7]) was 2 ± 1 nM; in data set [4], over 14200 nM. Besides, the EC90 in data set [1] (Trypanosoma cruzi) is 16 ± 5 nM; in data set [4], over 14200 nM. In data set [2] (rat), this compound returned an EC50 at 72 h of over 1420 nM. For the same compound, the “Decrease of the parasitemia peak” value in data set [3] (Posa 1.25 mpk (suboptimal dose) p.o., 10 days (5-14 dpi), mice) is “about 80%”. This compound also yielded an Animal survival in data set [3] (Posa 1.25 mpk p.o., 10 days (5-14 dpi)) of 20%. The compound further came in with a Survival of mice in data set [3] (Posa 10 mpk p.o., 10 days (5-14 dpi)) of 40%. Further, in data set [3] (Posa 10 mpk p.o., 10 days (5-14 dpi), mice), the “Effect on parasitemia on the peak (8 dpi)” value is recorded as “suppressed parasitemia on the peak”. Further, in data set [5], the Signs of toxicity result is reported as “did not show any signs of toxicity”.
Take `C[C@H]1CC[C@]2(NC1)O[C@H]1C[C@H]3[C@@H]4CC[C@H]5C[C@@H](O)CC[C@]5(C)[C@H]4CC[C@]3(C)[C@H]1[C@@H]2C` [Tomatidine (hydrochloride), Tomatidine]: the “SI (Selectivity Index)” value in data set [1] was 115. The EC50 in data set [1] (setting [7]) is at most 1000 nM; in data set [1], 780 ± 200 nM; in data set [4], 192000 ± 8100 nM; in data set [6], 5700 nM. The EC90 was 1800 ± 200 nM in data set [1] (Trypanosoma cruzi) and over 221000 nM in data set [4]. For the same compound, the EC50 at 72 h in data set [2] (rat L6 myoblasts, 72 h, n = 3, read-out: L6 cells (mean ± SD) EC50) is 89500 ± 26700 nM. Moreover, the “Maximum reduction in blood parasitemia on the peak” value in data set [3] (setting [8]) is at most 28%. In data set [3] (setting [8]), the “Protection against mortality induced by the infection” value is on record as “all animals died by 20 dpi”. For the same compound, in data set [3] (TH alone, doses 0.5 to 5 mg/kg, acute mouse model, listed as TH), the “Antiparasitic activity in vivo” value is “lack of antiparasitic activity; also recorded: did not present antiparasitic activity”. Further, the Signs of toxicity entry in data set [5] is listed as “did not show any signs of toxicity”.
